Here are results for one compound from patent US11519922B2, “Methods for identifying risk of chemotherapy-induced cardiotoxicity and targeted medical intervention” (Detroit R&D, Inc., priority 2018, dated 2022).

Structures are written as SMILES. Entries after “also recorded” stand apart in the source; their conditions may differ.

Series [1] deals with soluble epoxide hydrolase (sEH) in H9c2 cells. The experiment in a line: sEH protein expression by Western blot. It counts as cell-based, rat. The settings on record: 1 μM DOX 2 hr, cells harvested at 6 hr; normalized by beta-actin. The protocol:
FIGS. 5A and 5B show the effect of doxorubicin (DOX) on soluble epoxide hydrolase (sEH) expression in rat H9c2 cardiomyocytes cells (A) and NAG-1 (MIC-1, GDF-15), a plasma cardiotoxicity biomarker (B). Panel A, cells harvested at 6 hr with (Lane 2) and without (Lane 1) treatment of doxorubicin (DOX) (2 hr, final concentration 1 μM). Protein expression of sEH, GAPDH and beta-actin expressed in the cells were assessed by Western blot analysis. Expression levels of sEH were normalized by beta-actin protein levels and Panel B, Western blot analysis carried out under non-reducing/non-denaturing condition for NAG-1 protein in plasma samples obtained from healthy subjects (pooled plasma sample, control) and 3 breast cancer patients with cardiovascular disease (cardiotoxicity, Innovative Research);
Increased sEH protein levels after DOX treatment was detected by Western blot analysis using sEH antibody (Detroit R&D) (FIG. 5A).

Series [2] relates to plasma of breast cancer patients. The experiment in a line: Plasma 14,15-DHET by ELISA in breast cancer patients before and after DOX.
Experimental: Plasma samples were extracted using ethyl acetate and levels of 14,15-DHET were assessed in triplicate for ELISA.
A blind test for the early biomarker, 14,15-DHET (metabolite of sEH), was carried out with plasma samples from 5 breast cancer patients obtained before and after 3 months of DOX treatment (FIG. 4).
Fatty acids in the plasma samples (50 μl/sample) were extracted with ethyl acetate and levels of 14,15-DHET were assessed in triplicate samples using an ELISA kit from Detroit R&D.
Plasma samples from 5 breast cancer patients obtained before (n=5) and after (n=5) 3 months of DOX treatment (60 mg/m^2/injection for 4 injections).
Biologically active fatty acids in the plasma samples (50 μl/sample) were extracted with ethyl acetate, dried and re-suspended with 30 μl of DMF followed by dilution buffer to 900 μl. Levels of 14,15-DHET were assessed in triplicate using an ELISA kit from Detroit R&D (100 μl/well).
For series [3] the following is noted: DOX 3 months followed by one-year trastuzumab, HER2-positive breast cancer patients, ref (5); cited from earlier work.
For series [4], the system named is plasma of breast cancer patients. The experiment in a line: Plasma troponin I (TnI) in breast cancer patients after DOX treatment. Format: in vivo, human.
For series [5], the system named is rat heart tissue. The experiment in a line: Histological analysis of heart tissue of DOX-treated rats. Format: in vivo. The settings on record: DOX 3 mg/kg/week 2 weeks, 2-week recovery, 40× magnification. Here is the method:
Heart tissues were dehydrated, imbedded in paraffin and sliced. Slices were incubated in Mayer's hematoxylin reagent (ScyTek) for 5 min and covered with bluing reagent (ScyTek) for 15 seconds and eosin Y (ScyTek) solution for 3 minutes. Images of the rat cardiomyocyte were taken using a Zeiss Axiovert 200 microscope with RT Insight camera and SPOT Advanced Imaging software in 40× magnification at the Microscopy and Imaging Facility at Wayne State University.
Presence of vacuolization in heart tissue, a sign of cardiotoxicity (14), was not observed at 40× magnification.

The subject of series [6] is rat heart tissue. The experiment in a line: Heart tissue mRNA biomarkers by RT-PCR in DOX-treated female rats. The settings on record: DOX 3 mg/kg/week 2 weeks, no recovery, normalized by β-actin mRNA.
Experimental: Rats were euthanized at 48 hr (no recovery) or after 2 weeks (2 weeks recovery) following injection of the rats for 2 weeks with saline (control) or DOX (3 mg/kg/week). BNP mRNA levels in heart were assessed by qRT-PCR and results were normalized by β-actin mRNA (A). […] Results expressed as mean±SD (n=4-6). *p<0.05 and **p<0.01;
A study on serum biomarkers to detect risk of chemotherapy-induced cardiotoxicity was carried out using female rats treated with and without DOX (3 mg/kg/week, i.v. for 2 weeks) (no recovery group: Control and DOX, n=6/group) and with a 2-week recovery period (2 weeks recovery group: Control and DOX, n=6/group).
BNP mRNA levels in heart tissues were measured by reverse-transcription/real time PCR (Sybr green) and normalized using β-actin mRNA levels (13).
Heart total RNA was extracted using the TRIzol method, cDNA was synthesized using High Capacity cDNA Reverse Transcript Kit (Applied Biosystems). Levels of mRNA in cardiomyocytes were measured by real time PCR (Sybr green) using rat specific primers.
For series [7], the system named is plasma of breast cancer patient. The experiment in a line: 14,15-DHET nanowell label-free analysis of patient plasma. The settings on record: Patient #4, 10-fold diluted plasma, after vs before 3 months DOX, n=4. Format: in vivo, human. Here is the method: The plasma samples of Patient #4 (10-fold diluted) who developed DOX-dependent cardiotoxicity 3 and 6 months after completion of the 3 months DOX treatment were obtained before and after 3 months DOX treatment (FIG. 4).
The bare gold surface of the 8-channel 90 nm or 200 nm nanowell electrode (Detroit R&D) was coated with a self-assembly monolayer (SAM) by incubating the electrode with 10 mM of 11-mercaptoundecanoic acid (MUA) (Sigma) for 1 hr at room temperature and activated using 50 mM EDC and 50 mM NHS. The 14,15-DHET IgG (Detroit R&D) (FIG. 6A) or TnI IgG (Detroit R&D) (FIG. 6B) in PBS (2.5 μg/ml) was added to the EDC/NHS-activated electrode. The IgG level to obtain optimal results was experimentally obtained by using electrodes coated with various concentrations of IgG ranging 1 to 10 μg/ml.

A short description of series [8]: Cardiotoxicity / LVEF in breast cancer patients after DOX treatment. It counts as in vivo, human. The source says:
Chemotherapy-associated cardiotoxicity is defined as either a cardiomyopathy with a reduction of left ventricular ejection fraction (LVEF) ≥5% to <55% with symptoms of heart failure or an asymptomatic reduction of LVEF ≥10% to <55% by the Cardiac Review and Evaluation Committee (CREC) (7).

A further series has as its system rat serum. As to the kind of experiment: Serum fatty acid biomarkers by ELISA in DOX-treated female rats. Format: in vivo. The note with it: DOX 3 mg/kg/week 2 weeks. The protocol:
To verify that 14,15-DHET levels can be used as an early biomarker for prediction of DOX-dependent cardiotoxicity as previously found in the rat cardiomyocyte study (FIG. 1 and FIG. 2), levels of 14,15-DHET (sEH metabolite) in serum samples from control and DOX-treated rats with and without 2-week recovery were measured using a 14,15-DHET ELISA kit (Detroit R&D).
Levels of 20-HETE (CYP4A/4F-dependent hypertension biomarker) and 8-isoprostane (non-enzymatic oxidative stress biomarker) in rat serum samples were also measured using 20-HETE and 8-isoprostane ELISA kits, respectively, from Detroit R&D.
Biologically active fatty acids were extracted with ethyl acetate from 75 μl of serum samples (n=4) from control and DOX-treated animals with and without 2 weeks recovery. […] However, two weeks after the second injection (2 weeks recovery), when cardiotoxicity was still not detected, levels of 14,15-DHET (a metabolite of soluble epoxide hydrolase) and 8-isoprostane (non-enzymatic oxidative stress biomarker) were increased compared to the control group (FIG. 3B and FIG. 3D). No changes in levels of 20-HETE in rat serum samples between the two groups were observed (FIG. 3C).
(ELISA stands for enzyme-linked immunosorbent assay.)

With `COc1cccc2c1C(=O)c1c(O)c3c(c(O)c1C2=O)C[C@@](O)(C(=O)CO)C[C@@H]3O[C@H]1C[C@H](N)[C@H](O)[C@H](C)O1` [DOX, doxorubicin], the sEH protein levels result in series [1] is on record as “Increased”. The “increase of plasma 14,15-DHET” value is about 38% in [2] (Patient #3, after vs before 3 months of DOX treatment) and about 55% in series [2] (Patient #4, after vs before 3 months of DOX treatment). The “plasma 14,15-DHET levels” value in series [2] (Patients #2 and #5, after vs before 3 months of DOX treatment) is reported as “did not significantly increase”. In addition, the “cardiac dysfunction including symptomatic heart failure (HF)” value in series [3] was 18%. Besides, the “plasma troponin I (TnI) levels” value is “increased” in [4] (Patient #3, 3 months after 3 months of DOX treatment); “decreased” in series [4] (Patient #4, 3 months after 3 months of DOX treatment); “increased” in series [4] (Patients #1, #2 and #5 (no cardiotoxicity), 3 months after 3 months of DOX treatment). Besides, in the series on rat heart tissue [5], the “vacuolization / heart tissue damage (histology)” value was “no vacuolization or heart tissue damage; also recorded: not observed”. In addition, the “Heart tissue BNP mRNA” value with rat heart tissue [6] is recorded as “No change”. The “Heart tissue MPO mRNA” value with rat heart tissue [6] is reported as “No change”. In addition, the “Heart tissue S100A9 mRNA” value in the series on rat heart tissue [6] is recorded as “No change”. In series [7], the “increase of plasma 14,15-DHET level (nanowell)” value is recorded as about 20 fold. Further, the cardiotoxicity detected result in series [8] (5 breast cancer patients, at completion of 3 months of DOX treatment) is reported as “no cardiotoxicity”. Also, the “reduction of LVEF” value in [8] (Patient #3, 3 months after 3 months of DOX treatment was completed) is recorded as about 28%; in [8] (Patient #4, 3 months after 3 months of DOX treatment was completed), 22%; in [8] (Patients #3 and #4, 6 months after 3 months of DOX treatment was completed), “around 20%”; in series [8] (Patients #3 and #4, at 3 and 6 months after DOX treatment was completed), “higher than 20%”. Besides, in [8] (the other patients (#1, #2, #5), at 3 and 6 months after DOX treatment), the “change of LVEF” value is listed as “no significant changes”. Further, the results for the “Serum 20-HETE” value with rat serum (2 weeks recovery) and in the series on rat serum (no recovery (~48 hr)) were “No change” and “did not significantly change; also recorded: No change”, respectively. Further, the “Serum 8-Isoprostane” value in the series with rat serum (no recovery (~48 hr)) is on record as “did not significantly change; also recorded: No change”. Besides, in the series on rat serum (no recovery (~48 hr)), the “Serum 14,15-DHET” value is on record as “did not significantly change; also recorded: No change”.
